Measurements taken from ChEMBL document CHEMBL3991601, “The target landscape of clinical kinase drugs” (Science, 2017).
Active and inactive are the calls of the source. Rule as the data show it, for most assays here: actives have a measured Kd and inactives only a lower limit.

Key:
[1] = biological target: Mitogen-activated protein kinase 3 (Homo sapiens, UniProt P27361)
[2] = biological target: Serine/threonine-protein kinase B-raf (Homo sapiens, UniProt P15056)
Ephrin type-A receptor 2 = Ephrin type-A receptor 2 (Homo sapiens, UniProt P29317)
Chain of Ephrin type-A receptor 2 (P29317 whole entry): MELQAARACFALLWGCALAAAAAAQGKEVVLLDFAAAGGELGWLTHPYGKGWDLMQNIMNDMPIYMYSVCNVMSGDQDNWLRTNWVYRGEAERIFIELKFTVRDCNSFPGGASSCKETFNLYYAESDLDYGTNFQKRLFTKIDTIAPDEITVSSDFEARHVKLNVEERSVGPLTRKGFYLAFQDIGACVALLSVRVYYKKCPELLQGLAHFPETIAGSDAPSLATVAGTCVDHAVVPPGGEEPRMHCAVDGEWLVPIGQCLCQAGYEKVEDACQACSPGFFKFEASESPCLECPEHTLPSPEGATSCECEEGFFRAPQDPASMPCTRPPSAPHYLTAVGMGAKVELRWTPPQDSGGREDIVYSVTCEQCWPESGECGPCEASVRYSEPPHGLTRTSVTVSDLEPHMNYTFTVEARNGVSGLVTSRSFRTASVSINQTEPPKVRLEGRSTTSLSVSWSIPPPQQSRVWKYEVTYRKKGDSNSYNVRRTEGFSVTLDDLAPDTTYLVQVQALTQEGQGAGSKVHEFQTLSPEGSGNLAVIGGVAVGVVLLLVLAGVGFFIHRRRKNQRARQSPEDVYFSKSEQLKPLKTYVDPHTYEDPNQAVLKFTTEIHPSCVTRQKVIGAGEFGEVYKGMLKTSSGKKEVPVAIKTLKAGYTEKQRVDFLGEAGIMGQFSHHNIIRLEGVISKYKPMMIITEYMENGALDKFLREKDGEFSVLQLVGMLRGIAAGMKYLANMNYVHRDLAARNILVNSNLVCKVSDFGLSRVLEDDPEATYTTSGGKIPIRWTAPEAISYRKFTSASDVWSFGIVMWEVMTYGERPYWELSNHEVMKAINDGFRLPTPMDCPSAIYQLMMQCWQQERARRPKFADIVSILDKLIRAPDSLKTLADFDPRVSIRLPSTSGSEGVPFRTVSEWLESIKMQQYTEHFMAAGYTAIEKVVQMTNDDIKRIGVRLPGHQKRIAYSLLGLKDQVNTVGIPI

[3] = biological target: T1, Non-receptor tyrosine-protein kinase TNK1 (Homo sapiens, UniProt Q13470)
T1 sequence (Q13470 whole entry): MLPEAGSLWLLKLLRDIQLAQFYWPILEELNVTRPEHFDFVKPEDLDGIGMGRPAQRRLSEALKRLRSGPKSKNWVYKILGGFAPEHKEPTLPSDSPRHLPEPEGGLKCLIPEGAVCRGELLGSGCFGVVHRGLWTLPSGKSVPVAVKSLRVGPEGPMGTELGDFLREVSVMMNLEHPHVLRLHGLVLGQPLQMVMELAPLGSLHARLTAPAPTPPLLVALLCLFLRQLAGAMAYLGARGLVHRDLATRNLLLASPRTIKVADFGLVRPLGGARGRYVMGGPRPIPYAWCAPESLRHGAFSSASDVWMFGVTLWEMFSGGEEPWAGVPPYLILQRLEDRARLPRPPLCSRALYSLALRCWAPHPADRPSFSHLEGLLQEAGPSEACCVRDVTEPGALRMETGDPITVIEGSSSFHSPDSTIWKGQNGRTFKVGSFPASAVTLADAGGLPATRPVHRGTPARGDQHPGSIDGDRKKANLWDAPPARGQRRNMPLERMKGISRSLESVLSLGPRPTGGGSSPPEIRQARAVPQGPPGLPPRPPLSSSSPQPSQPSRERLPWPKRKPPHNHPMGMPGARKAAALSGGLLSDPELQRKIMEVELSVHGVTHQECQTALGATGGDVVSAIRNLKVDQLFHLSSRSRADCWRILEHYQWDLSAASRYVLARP

[4] = biological target: Fibroblast growth factor receptor 1 (Homo sapiens, UniProt P11362)
Chain of Fibroblast growth factor receptor 1 (P11362 whole entry): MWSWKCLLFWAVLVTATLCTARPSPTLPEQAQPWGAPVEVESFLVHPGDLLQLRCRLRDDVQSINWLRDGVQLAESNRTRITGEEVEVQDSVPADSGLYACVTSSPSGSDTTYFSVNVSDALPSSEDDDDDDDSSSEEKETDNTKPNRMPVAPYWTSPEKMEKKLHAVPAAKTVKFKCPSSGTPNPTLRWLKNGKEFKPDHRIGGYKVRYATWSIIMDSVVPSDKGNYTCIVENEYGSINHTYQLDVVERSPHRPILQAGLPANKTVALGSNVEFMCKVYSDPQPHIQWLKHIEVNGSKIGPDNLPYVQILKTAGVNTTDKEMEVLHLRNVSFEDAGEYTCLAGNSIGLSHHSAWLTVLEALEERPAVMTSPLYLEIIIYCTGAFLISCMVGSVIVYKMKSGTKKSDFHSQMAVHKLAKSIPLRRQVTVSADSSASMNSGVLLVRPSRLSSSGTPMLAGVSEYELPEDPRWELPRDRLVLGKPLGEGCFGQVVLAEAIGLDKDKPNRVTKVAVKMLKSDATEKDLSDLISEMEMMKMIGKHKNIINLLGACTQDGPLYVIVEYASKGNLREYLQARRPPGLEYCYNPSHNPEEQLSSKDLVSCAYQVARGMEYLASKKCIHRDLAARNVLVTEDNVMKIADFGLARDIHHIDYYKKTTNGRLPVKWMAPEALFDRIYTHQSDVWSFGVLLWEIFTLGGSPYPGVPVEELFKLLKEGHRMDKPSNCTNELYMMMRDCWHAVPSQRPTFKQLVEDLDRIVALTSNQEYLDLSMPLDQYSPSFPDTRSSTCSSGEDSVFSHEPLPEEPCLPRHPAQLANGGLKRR

[5] = biological target: Protein kinase C beta type (Homo sapiens, UniProt P05771)
Chain of Protein kinase C beta type (P05771 whole entry): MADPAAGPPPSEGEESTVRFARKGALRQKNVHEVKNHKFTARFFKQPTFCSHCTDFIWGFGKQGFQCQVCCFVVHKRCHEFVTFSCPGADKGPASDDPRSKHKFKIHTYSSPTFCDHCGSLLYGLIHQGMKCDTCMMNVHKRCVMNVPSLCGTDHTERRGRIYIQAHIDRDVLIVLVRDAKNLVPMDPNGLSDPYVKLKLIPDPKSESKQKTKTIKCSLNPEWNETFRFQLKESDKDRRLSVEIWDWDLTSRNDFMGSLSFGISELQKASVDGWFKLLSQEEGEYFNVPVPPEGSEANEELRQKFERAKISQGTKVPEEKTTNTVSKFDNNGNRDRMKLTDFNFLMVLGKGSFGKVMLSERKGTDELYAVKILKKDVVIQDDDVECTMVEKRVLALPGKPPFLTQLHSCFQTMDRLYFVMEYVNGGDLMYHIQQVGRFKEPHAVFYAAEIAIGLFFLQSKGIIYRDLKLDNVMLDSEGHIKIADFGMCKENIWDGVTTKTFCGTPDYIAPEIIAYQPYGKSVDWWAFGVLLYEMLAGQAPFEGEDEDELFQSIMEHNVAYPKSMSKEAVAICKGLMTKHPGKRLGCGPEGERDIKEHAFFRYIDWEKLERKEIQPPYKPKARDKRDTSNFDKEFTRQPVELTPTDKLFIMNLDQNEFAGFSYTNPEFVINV

[6] = biological target: T2, Phosphatidylinositol 5-phosphate 4-kinase type-2 gamma (Homo sapiens, UniProt Q8TBX8)
T2 sequence (Q8TBX8 whole entry): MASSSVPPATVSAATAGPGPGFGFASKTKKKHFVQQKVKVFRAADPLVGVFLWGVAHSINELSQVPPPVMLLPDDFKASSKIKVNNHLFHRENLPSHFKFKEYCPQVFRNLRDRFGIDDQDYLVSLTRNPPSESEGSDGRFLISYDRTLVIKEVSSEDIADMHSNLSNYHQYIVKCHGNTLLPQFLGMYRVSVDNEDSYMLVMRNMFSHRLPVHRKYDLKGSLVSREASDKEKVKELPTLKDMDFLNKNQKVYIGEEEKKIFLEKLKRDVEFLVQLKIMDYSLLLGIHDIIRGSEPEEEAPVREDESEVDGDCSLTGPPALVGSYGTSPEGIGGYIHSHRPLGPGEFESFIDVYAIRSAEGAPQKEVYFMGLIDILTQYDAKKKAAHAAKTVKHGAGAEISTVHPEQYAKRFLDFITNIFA

[7] = biological target: Casein kinase I isoform alpha (Homo sapiens, UniProt P48729)
Chain of Casein kinase I isoform alpha (P48729 whole entry, canonical isoform): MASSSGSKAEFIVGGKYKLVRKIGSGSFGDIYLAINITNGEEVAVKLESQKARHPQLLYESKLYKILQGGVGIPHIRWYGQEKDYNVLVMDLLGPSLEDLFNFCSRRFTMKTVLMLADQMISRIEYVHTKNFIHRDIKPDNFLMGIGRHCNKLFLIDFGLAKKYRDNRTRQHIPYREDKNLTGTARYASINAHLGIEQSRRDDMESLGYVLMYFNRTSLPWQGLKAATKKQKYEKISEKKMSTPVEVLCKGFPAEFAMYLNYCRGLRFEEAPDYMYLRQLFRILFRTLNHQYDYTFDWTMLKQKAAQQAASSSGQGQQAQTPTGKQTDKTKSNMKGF

[8] = biological target: Tyrosine-protein kinase BTK (Homo sapiens, UniProt Q06187)
Chain of Tyrosine-protein kinase BTK (Q06187 whole entry): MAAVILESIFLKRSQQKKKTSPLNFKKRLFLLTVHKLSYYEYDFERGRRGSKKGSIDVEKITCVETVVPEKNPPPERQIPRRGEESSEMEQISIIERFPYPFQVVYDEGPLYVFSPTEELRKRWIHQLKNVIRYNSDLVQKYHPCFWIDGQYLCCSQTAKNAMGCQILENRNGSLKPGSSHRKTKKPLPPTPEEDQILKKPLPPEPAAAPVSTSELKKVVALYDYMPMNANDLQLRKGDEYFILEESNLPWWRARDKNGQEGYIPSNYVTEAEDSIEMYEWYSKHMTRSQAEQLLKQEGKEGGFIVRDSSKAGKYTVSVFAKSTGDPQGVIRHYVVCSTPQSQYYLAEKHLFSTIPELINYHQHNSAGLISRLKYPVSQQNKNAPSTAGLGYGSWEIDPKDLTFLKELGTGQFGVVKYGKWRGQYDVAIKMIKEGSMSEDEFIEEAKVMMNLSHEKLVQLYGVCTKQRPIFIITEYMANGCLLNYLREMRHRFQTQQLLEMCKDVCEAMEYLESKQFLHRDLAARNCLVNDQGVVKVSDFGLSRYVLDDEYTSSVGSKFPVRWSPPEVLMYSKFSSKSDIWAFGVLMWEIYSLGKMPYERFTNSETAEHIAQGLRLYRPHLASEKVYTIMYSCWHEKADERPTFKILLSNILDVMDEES

[9] = biological target: Tyrosine-protein kinase CSK (Homo sapiens, UniProt P41240)
Rab-like protein 3 = biological target: T3, Rab-like protein 3 (Homo sapiens, UniProt Q5HYI8)
T3 sequence (Q5HYI8 whole entry): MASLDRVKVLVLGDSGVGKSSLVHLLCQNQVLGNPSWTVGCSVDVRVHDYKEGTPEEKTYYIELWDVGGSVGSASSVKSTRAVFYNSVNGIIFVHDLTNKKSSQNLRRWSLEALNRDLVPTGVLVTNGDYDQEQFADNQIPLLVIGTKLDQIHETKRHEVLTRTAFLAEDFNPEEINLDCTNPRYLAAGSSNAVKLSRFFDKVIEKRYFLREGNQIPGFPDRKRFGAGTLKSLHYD

[10] = biological target: Cyclin-dependent kinase 13 (Homo sapiens, UniProt Q14004)
Chain of Cyclin-dependent kinase 13 (Q14004 whole entry): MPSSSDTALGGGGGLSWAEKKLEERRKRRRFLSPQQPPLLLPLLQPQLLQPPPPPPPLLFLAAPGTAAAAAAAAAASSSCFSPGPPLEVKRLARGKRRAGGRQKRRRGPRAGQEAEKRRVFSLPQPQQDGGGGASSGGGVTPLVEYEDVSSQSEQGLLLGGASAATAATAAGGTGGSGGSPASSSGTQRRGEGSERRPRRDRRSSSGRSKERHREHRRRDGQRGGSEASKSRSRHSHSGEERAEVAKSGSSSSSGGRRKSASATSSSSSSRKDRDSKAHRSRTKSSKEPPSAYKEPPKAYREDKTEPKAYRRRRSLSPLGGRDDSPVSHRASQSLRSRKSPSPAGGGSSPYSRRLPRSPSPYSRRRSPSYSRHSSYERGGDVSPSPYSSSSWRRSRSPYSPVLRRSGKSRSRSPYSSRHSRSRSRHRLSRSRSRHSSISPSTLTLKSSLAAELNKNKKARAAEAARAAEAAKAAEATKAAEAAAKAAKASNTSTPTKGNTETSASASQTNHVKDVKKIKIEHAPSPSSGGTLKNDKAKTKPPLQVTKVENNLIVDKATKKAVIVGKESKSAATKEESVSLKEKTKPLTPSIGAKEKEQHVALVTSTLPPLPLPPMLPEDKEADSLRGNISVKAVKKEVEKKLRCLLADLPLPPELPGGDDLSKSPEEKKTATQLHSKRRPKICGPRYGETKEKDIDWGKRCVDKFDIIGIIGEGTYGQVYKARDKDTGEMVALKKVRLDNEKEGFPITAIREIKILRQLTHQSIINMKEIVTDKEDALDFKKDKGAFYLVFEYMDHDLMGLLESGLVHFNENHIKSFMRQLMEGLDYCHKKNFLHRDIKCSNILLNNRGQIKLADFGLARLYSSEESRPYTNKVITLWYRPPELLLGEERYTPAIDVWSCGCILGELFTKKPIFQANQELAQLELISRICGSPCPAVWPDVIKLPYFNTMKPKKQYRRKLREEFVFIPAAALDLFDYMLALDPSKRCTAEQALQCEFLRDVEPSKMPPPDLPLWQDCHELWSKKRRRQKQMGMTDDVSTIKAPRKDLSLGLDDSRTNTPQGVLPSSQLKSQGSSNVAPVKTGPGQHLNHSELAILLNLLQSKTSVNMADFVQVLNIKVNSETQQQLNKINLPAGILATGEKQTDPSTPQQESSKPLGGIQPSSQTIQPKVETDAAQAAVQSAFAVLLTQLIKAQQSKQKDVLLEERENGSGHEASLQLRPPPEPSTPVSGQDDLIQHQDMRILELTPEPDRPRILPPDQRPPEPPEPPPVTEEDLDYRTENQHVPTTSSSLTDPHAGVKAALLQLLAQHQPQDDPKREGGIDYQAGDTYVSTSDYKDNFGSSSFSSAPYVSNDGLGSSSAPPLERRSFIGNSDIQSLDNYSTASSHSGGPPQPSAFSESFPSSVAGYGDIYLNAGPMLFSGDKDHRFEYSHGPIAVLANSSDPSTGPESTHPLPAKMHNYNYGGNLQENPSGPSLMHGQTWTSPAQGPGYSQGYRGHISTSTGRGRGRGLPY

[11] = biological target: T4, General transcription and DNA repair factor IIH helicase subunit XPD (Homo sapiens, UniProt P18074); settings: read-out: Kd apparent; k-562, colo 205, sk-n-be(2) and mv-4-11
T4 sequence (P18074 whole entry): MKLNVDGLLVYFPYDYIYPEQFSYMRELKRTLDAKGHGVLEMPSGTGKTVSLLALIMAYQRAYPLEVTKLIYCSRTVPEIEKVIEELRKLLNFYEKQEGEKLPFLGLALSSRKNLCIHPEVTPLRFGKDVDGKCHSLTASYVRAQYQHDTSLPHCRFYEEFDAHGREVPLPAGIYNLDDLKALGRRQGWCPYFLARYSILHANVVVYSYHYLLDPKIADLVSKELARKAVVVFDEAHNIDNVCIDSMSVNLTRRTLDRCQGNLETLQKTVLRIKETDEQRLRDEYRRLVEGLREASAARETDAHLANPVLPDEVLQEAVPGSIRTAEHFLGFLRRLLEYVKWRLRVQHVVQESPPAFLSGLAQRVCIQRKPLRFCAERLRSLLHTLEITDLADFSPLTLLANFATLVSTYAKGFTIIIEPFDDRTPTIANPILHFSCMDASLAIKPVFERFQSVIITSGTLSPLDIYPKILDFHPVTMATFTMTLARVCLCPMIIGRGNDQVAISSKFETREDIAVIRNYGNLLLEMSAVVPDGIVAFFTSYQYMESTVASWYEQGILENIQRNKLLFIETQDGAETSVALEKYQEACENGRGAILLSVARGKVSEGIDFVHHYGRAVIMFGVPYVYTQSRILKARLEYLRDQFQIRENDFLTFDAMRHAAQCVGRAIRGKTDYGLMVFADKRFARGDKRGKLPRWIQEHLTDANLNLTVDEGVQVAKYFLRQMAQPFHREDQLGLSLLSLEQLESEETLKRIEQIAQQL
Also: in the data inactive means no Kd found up to 30 µM.

Row | SMILES | Kd [1] | Kd [2] | Kd (Ephrin type-A receptor 2) | Kd [3] | Kd [4] | Kd [5] | Kd [6] | Kd [7] | Kd [8] | Kd [9] | Kd (Rab-like protein 3) | Kd [10] | Kd [11]
1 | Cc1cc(-c2cc(O)ccc2Cl)cc2nnc(Nc3ccc(OCCN4CCCC4)cc3)nc12 | > 30 µM (inactive) | 0.003 µM (active) | 0.001 µM (active) | > 30 µM (inactive) | > 30 µM (inactive) | > 30 µM (inactive) | > 30 µM (inactive) | > 30 µM (inactive) | > 30 µM (inactive) | > 30 µM (inactive) | > 30 µM (inactive) | > 30 µM (inactive) | > 30 µM (inactive)
2 | O=C(c1ccc(F)c(F)c1Nc1ccc(I)cc1F)N1CC(O)([C@@H]2CCCCN2)C1 [COBIMETINIB] | > 30 µM (inactive) | > 30 µM (inactive) | > 30 µM (inactive) | > 30 µM (inactive) | > 30 µM (inactive) | > 30 µM (inactive) | > 30 µM (inactive) | > 30 µM (inactive) | > 30 µM (inactive) | > 30 µM (inactive) | > 30 µM (inactive) | > 30 µM (inactive) | > 30 µM (inactive)
3 | C[C@@H]1CN(Cc2ccc(F)cc2)[C@@H](C)CN1C(=O)c1cc2c(C(=O)C(=O)N(C)C)cn(C)c2cc1Cl [TALMAPIMOD] | > 30 µM (inactive) | > 30 µM (inactive) | > 30 µM (inactive) | > 30 µM (inactive) | > 30 µM (inactive) | > 30 µM (inactive) | > 30 µM (inactive) | > 30 µM (inactive) | > 30 µM (inactive) | > 30 µM (inactive) | > 30 µM (inactive) | > 30 µM (inactive) | > 30 µM (inactive)
4 | CC(C)Nc1cc(-c2c[nH]c(C(=O)N[C@H](CO)c3cccc(Cl)c3)c2)c(Cl)cn1 [ULIXERTINIB] | 0.16 µM (active) | > 30 µM (inactive) | > 30 µM (inactive) | > 30 µM (inactive) | > 30 µM (inactive) | > 30 µM (inactive) | > 30 µM (inactive) | > 30 µM (inactive) | > 30 µM (inactive) | > 30 µM (inactive) | > 30 µM (inactive) | > 30 µM (inactive) | > 30 µM (inactive)
5 | Cc1ccc(-n2nc(C(C)(C)C)cc2NC(=O)NCc2cc(F)ccc2Oc2ccc3c(cnn3CCO)c2)cc1 [PEXMETINIB] | > 30 µM (inactive) | 5.23 µM (active) | 2.56 µM (active) | 1.66 µM (active) | 2.67 µM (active) | > 30 µM (inactive) | > 30 µM (inactive) | > 30 µM (inactive) | > 30 µM (inactive) | > 30 µM (inactive) | > 30 µM (inactive) | > 30 µM (inactive) | > 30 µM (inactive)
6 | CNC(=O)c1ccc(-c2cnc3ncc(Cc4ccc5ncccc5c4)n3n2)cc1F [CAPMATINIB] | > 30 µM (inactive) | > 30 µM (inactive) | > 30 µM (inactive) | > 30 µM (inactive) | > 30 µM (inactive) | > 30 µM (inactive) | > 30 µM (inactive) | > 30 µM (inactive) | > 30 µM (inactive) | > 30 µM (inactive) | > 30 µM (inactive) | > 30 µM (inactive) | > 30 µM (inactive)

Results, then the compound that gave them:

Row | Kd [1] | Kd [2] | Kd (Ephrin type-A receptor 2) | Kd [3] | Kd [4] | Kd [5] | Kd [6] | Kd [7] | Kd [8] | Kd [9] | Kd (Rab-like protein 3) | Kd [10] | Kd [11] | SMILES
7 | > 30 µM (inactive) | > 30 µM (inactive) | > 30 µM (inactive) | > 30 µM (inactive) | > 30 µM (inactive) | > 30 µM (inactive) | > 30 µM (inactive) | > 30 µM (inactive) | > 30 µM (inactive) | > 30 µM (inactive) | > 30 µM (inactive) | > 30 µM (inactive) | > 30 µM (inactive) | Cn1cc(-c2ccc(F)c(C(F)(F)F)c2)nc1C1CCN(c2ncnc3[nH]ncc23)CC1 [LY-2584702]
8 | > 30 µM (inactive) | > 30 µM (inactive) | > 30 µM (inactive) | > 30 µM (inactive) | > 30 µM (inactive) | > 30 µM (inactive) | > 30 µM (inactive) | > 30 µM (inactive) | > 30 µM (inactive) | > 30 µM (inactive) | > 30 µM (inactive) | > 30 µM (inactive) | > 30 µM (inactive) | CNC(=O)c1ccc(C)c(-n2c(C)cc(OCc3ccc(F)cc3F)c(Br)c2=O)c1 [PH-797804]
9 | > 30 µM (inactive) | > 30 µM (inactive) | > 30 µM (inactive) | > 30 µM (inactive) | > 30 µM (inactive) | > 30 µM (inactive) | > 30 µM (inactive) | > 30 µM (inactive) | > 30 µM (inactive) | > 30 µM (inactive) | > 30 µM (inactive) | > 30 µM (inactive) | > 30 µM (inactive) | COc1ccc(-c2ccc3c(N4CCOC[C@@H]4C)nc(N4CCOC[C@@H]4C)nc3n2)cc1CO [AZD-8055]
